Experimental data as given in US4150970A, “Growth regulator for plants” (Board of Trustees of Michigan State University, priority 1977, dated 1979).

What was measured:
[1] = system: Starbonnet rice seedlings; assay: Dry weight, leaf area and water uptake of rice under two light intensities (Example XVI); format: in vivo
Protocol: (§1) Rice seed cv. IR-8, or Starbonnet was surface treated with 0.1 percent mercuric chloride and planted in 77 cc plastic cups containing vermiculite and watered with one-fourth Hoagland's nutrient solution containing 3 mM of nitrogen at pH 5.0. After 10 days, seedlings were transplanted to 220 cc specimen cups wrapped in aluminum foil and containing 180 cc of the same Hoagland's nutrient solution. Four seedlings were suspended in the solution with a sponge rubber disc. The plants were grown under a 8 h night at 25° C. and a 16 h day at 30° C. with 21 and 8 μwatts per cm^2 in the blue and red spectra respectively. In the test with varying light intensity the high light intensity was 30 13 and the low intensity was 15 and 8 μwatts per cm^2 for the blue and red spectra respectively. The nutrient solution was renewed every 2 or 3 days. After one week the plants were sorted for size and similar sized plants assigned to the same block for the experiment. Prior to the initiation of a test the plants in each cup were assigned treatment numbers by use of a random number table. […] Sixteen hours prior to a test the foil wrapped cups were tared, and filled with one-half Hoaglands solution containing 6 mM nitrogen. Eighteen μl of chloroform or chloroform containing 1.8 μg triacontanol were placed on 2 cm^2 of Whatman No. 1 filter papers, air dried and placed in the specimen cups. This concentration of 10 μg triacontanol/liter was used for all tests described in the following Examples except where specifically indicated to the contrary. Immediately prior to the test the cups were all brought up to 180 ml. including a set of cups without plants to measure evaporation.
(§2) Water uptake was measured by weighing the cups after removal of the plants and subtracting the tare and the water evaporated. For tests continued for more than one day, the solution used was measured every 3 days and new Hoagland's added and the pH maintained at 5.0 with sulfuric acid.
(§3) The plants were disected at harvest into shoots and roots. The expanded leaves were cut at the ligule and the newest leaf at the point it entered the sheath. The surface area of expanded leaves were measured using a Lambda Model LI-3000 planimeter. The plants were dried to constant weight in an oven at 100° C. and the roots, expanded leaves, and sheaths were weighed separately.
Fourteen day old "Starbonnet" rice seedlings were prepared and treated with triacontanol as explained in Example IV above.
The increase in dry weight and leaf area and the water uptake of the rice seedlings treated with triacontanol under two different light intensities was determined. High light was 30 and 13 μwatts/cm^2 and low light 15 and 8 μwatts/cm^2 in the blue and red spectra respectively. The plants were exposed to these light conditions 36 hours prior to treatment. At zero time the plants under low light intensity weighed 26.0 mg with 4.41 cm^2 leaf area. The high light plants weighed 29.5 mg per plant with 4.01 cm^2 leaf area per plant. FIGS. 1, 2 and 3 of the accompanying drawings show the results of these tests. In each Figure, A=low light control; B=low light+triacontanol; C=high light control; and D=high light+triacontanol. Presented in tabular form, the data for FIGS. 1, 2 and 3 appears in Table XVI, as follows: […]

[2] = system: IR-8 rice seedlings; assay: Growth and water uptake of IR-8 rice seedlings (Example IV); format: in vivo; conditions: for Dry Wt. per plant / Leaf Area per plant / Water Uptake per leaf area / Water Uptake per plant: 10 μg/liter
Protocol: as §1, §2, §3
Four to 6 replicates were used in each experiment in a randomized complete block design. The data were submitted to analysis of variance. Means were compared by use of the L.S.D. except where there was only one degree of freedom for treatment. In these instances the F value from the analysis of variance was used for comparison of means.
To determine the effect of triacontanol on growth and water uptake of IR-8 rice seedlings, the seedlings were prepared as above explained. Alternate seedlings were treated with no triacontanol or with a concentration of 10 μg triacontanol per liter as above set forth. Leaf area, dry weight and water uptake were determined for each plant at 0 time and at 8, 24, 72 and 216 hour intervals.

[3] = system: Barley callus cell culture; assay: Growth of barley callus cell culture (Example XIX); format: cell-based, interspecific cross of Hordeum vulgare and Hordeum jubatum
Protocol: (§4) Cell cultures were separately grown in disposable petri dishes.
5. Barley (interspecific cross of Hordeum vulgare and Hordeum jubatum)
(§5) The cultures were grown on the basic medium of mineral salts described by Linsmaier and Skoog (Physiol. Plant, […] (1965)). Vitamins and hormones varied for each tissue (Table X-1) to maintain the tissues in an undifferentiated state. For all of the tissues inositol was 100 mg/liter and agar 1%. Sucrose was 3% for all but the bean which was 2%.
(§6) Callus was produced from pith for tobacco, potato and tomato. Bean callus was produced from hypocotyl sections and barley callus from immature ovarian tissue. Subcultures were maintained on the appropriate media.
(§7) Stock solutions of triacontanol were prepared at a concentration of 100 μg/ml. The solvent used was glass distilled benzene. The lower concentrations were obtained by serial dilutions. Treatments were applied to 4.5 cm Whatman #1 filter paper disks in 100 μl aliquots. Controls received 100 μl of glass distilled benzene. The solvent was evaporated for approximately 15 minutes and the filter papers were then placed on the agar medium.
(§8) Callus tissue was then broken into pieces of approximately the same size (10 mg) and placed in the petri dishes on the treated filter paper (one piece per dish). For experiments conducted in the light the intensity was approximately 2.0 microwatts/cm^2 -namometer. Fresh weight measurements were made after 12 days of growth.

[4] = system: oat first-internode; conditions: published reports; cited from earlier work
[5] = system: tobacco callus; assay: Growth of tobacco callus, triacontanol and octocosanol (Example XIX, FIG. 6); format: cell-based, Nicotiana tabacum, var. Wisconsin 38; conditions: 10 days; for growth over the control: four concentrations
Protocol: as §4
1. Haploid tobacco (Nicotiana tabacum, var. Wisconsin 38)
as §5, §6, §7, §8
A stock solution of octocosanol (CH3 (CH2)26 CH2 OH was prepared in the same manner as the triacontanol solutions above described.
The effect of four concentrations of triacontanol and octocosanol on tobacco callus was determined, using the materials and procedures above described in this Example. The dishes were tared and weighed at the end of 10 days. The results are illustrated in FIG. 6 of the drawings.

[6] = 10 μg per liter, nutrient solution
[7] = printed 10.0 g triacontanol, 12 days

Structure (SMILES): CCCCCCCCCCCCCCCCCCCCCCCCCCCCCCO [Triacontanol, 1-triacontanol]
- Dry Wt., Percent Increase from Zero Time ([1]; high light, 4 hr): 16%
- Leaf Area, Percent Increase from Zero Time ([1]; high light, 4 hr): 19%
- Water Uptake ([1]; high light, 4 hr): 192 μl/cm^2 leaf area
- Dry Wt., Percent Increase from Zero Time ([1]; high light, 8 hr): 27%
- Leaf Area, Percent Increase from Zero Time ([1]; high light, 8 hr): 38%
- Water Uptake ([1]; high light, 8 hr): 351 μl/cm^2 leaf area
- Dry Wt., Percent Increase from Zero Time ([1]; high light, 16 hr): 51%
- Leaf Area, Percent Increase from Zero Time ([1]; high light, 16 hr): 88%
- Water Uptake ([1]; high light, 16 hr): 649 μl/cm^2 leaf area
- dry weight and leaf area gain under low light versus control under high light ([1]; low light conditions): gained as much dry weight and leaf area as the control plants did when subjected to high light conditions
- Dry Wt., Percent Increase from Zero Time ([1]; low light, 4 hr): 10%
- Leaf Area, Percent Increase from Zero Time ([1]; low light, 4 hr): 7%
- Water Uptake ([1]; low light, 4 hr): 117 μl/cm^2 leaf area
- Dry Wt., Percent Increase from Zero Time ([1]; low light, 8 hr): 23%
- Leaf Area, Percent Increase from Zero Time ([1]; low light, 8 hr): 31%
- Water Uptake ([1]; low light, 8 hr): 239 μl/cm^2 leaf area
- Dry Wt., Percent Increase from Zero Time ([1]; low light, 16 hr): 45%
- Leaf Area, Percent Increase from Zero Time ([1]; low light, 16 hr): 64%
- Water Uptake ([1]; low light, 16 hr): 453 μl/cm^2 leaf area
- time within which dry weight of entire plant significantly increased [2, 6]: ≤ 3 days
- time within which leaf area significantly increased [2, 6]: ≤ 8 h
- Dry Wt. per plant ([2]; 8 hours): 53.4 mg
- Leaf Area per plant ([2]; 8 hours): 8.2 cm^2
- Water Uptake per leaf area ([2]; 8 hours): 0.25 ml/cm^2 leaf area
- Water Uptake per plant ([2]; 8 hours): 2.0 mL
- Dry Wt. per plant ([2]; 24 hours): 58.6 mg
- Leaf Area per plant ([2]; 24 hours): 9.0 cm^2
- Water Uptake per leaf area ([2]; 24 hours): 0.35 ml/cm^2 leaf area
- Water Uptake per plant ([2]; 24 hours): 3.2 mL
- Dry Wt. per plant ([2]; 72 hours): 81.7 mg
- Leaf Area per plant ([2]; 72 hours): 13.7 cm^2
- Water Uptake per leaf area ([2]; 72 hours): 1.34 ml/cm^2 leaf area
- Water Uptake per plant ([2]; 72 hours): 18.4 mL
- Dry Wt. per plant ([2]; 216 hours): 204.0 mg
- Leaf Area per plant ([2]; 216 hours): 22.4 cm^2
- Water Uptake per leaf area ([2]; 216 hours): 2.92 ml/cm^2 leaf area
- Water Uptake per plant ([2]; 216 hours): 65.5 mL
- growth of in vitro cell cultures ([3]; barley): significant increases in growth
- % of control [3, 7]: 167 % of control
- Fresh weight [3, 7]: 35.0
- growth, oat first-internode method [4]: not active
- optimum concentration for growth [5]: 0.1 μg per dish
- growth over the control ([5]; listed as 1-triacontanol): significant increases in growth
- growth over the control ([5]; listed as triacontanol): significant increases in growth over the control
